Data as given in US20110312962A1, “NOVEL 2-MORPHOLINO-3-AMIDO-PYRIDINE DERIVATIVES AND THEIR MEDICAL USE” (NEUROSEARCH A/S, priority 2008, published 2011).

Biological target: T1, human Kv7.2+3 (Homo sapiens, UniProt O43525+O43526)
T1 construct: expressed in transfected cells; host or cells: HEK293
Experiment: FLIPR-based characterization of Kv7.2+3 modulators (thallium influx, BTC-AM)
Format: cell-based
Settings: HEK293 cells over-expressing human Kv7.2+3; for EC50: Tl+ influx FLIPR, 50% of channel activity compared to retigabine control responses; for Emax: maximal response relative to the reference (retigabine) response, read-out: Efficacy
Method: This experiment determines the ability of a test compound to modulate the activity of Kv7.2+3 channels heterologously expressed in human HEK293 cells. The ability is determined relative to retigabine. The activity is determined using a standard thallium (I) sensitive assay, e.g. using a fluorometric method in a Fluorescent Image Plate Reader (FLIPR) as described below in more detail.
Full concentration/response curves are generated and EC50 values are calculated based on max values. EC50 values (Effective Concentration) represent the concentration of the test substance, at which 50% of the channel activity is obtained when compared to retigabine control responses. Maximal response determined relative to the reference (retigabine) response is calculated.
Human HEK293 cells over-expressing human Kv7.2+3 are grown in culture medium (DMEM supplemented with 10% foetal bovine serum), in polystyrene culture flasks ([…]) in a humidified atmosphere of 5% CO2 in air, at 37° C. Cell confluence should be 80-90% on day of plating. Cells are rinsed with 4 ml of PBS (phosphate buffered saline) and incubated 2 min with 1 ml of Trypsin-EDTA. After addition of 25 ml of culture medium cells are re-suspended by trituration with a 25 ml pipette.
The cells are seeded at a density of ˜3×10^6 cells/ml (25 μl/well) in black-walled, clear bottom, 384-well plates pre-treated with 0.01 g/l poly-D-lysin (20 μl/well for 30 min). Plated cells were allowed to proliferate for 24 h before loading with dye.
BTC-AM (50 mg, Invitrogen) is added 25.5 μl DMSO. The BTC-AM stock solution (2 mM) is diluted to a final concentration of 2 μM in Cl^− free assay buffer (in mM: 140 Na^+-gluconate, 2.5 K^+-gluconate, 6 Ca2^+-gluconate, 1 Mg^2+ gluconate, 5 glucose, 10 HEPES, pH 7.3) containing 2 μM ouabain, 2 mM amaranth and 1 mM tartrazine.
The culture medium is aspirated from the wells, the cells are washed thrice in Cl^− free assay buffer, and 25 μl of the BTC-AM loading solution is added to each well. The cells are incubated at 37° C. for 60 min.
After the loading period, the TI^+-sensitive BTC fluorescence signal is measured over time using a FLIPR.
• Temperature: Room temp. • First addition: 12 μl test or control compound after 15 sec at a rate of 30 μl/sec and starting height of 20 μl • Second addition: 12 μl stimulus buffer (Cl^− free assay buffer supplemented with 1 mM TI2SO4, 5 mM K2SO4 as well as the quenchers amaranth (2 mM) and tartrazine (1 mM)) is added after an additional 3 minutes at a rate of 30 μl/sec and starting height of 30 μl • Reading intervals: First sequence—3 sec×5, 2 sec×24 and 5 sec×25 Second sequence—1 sec×5, 2 sec×24 and 5 sec×36 Addition plates (compound plate and stimulus plate) are placed in positions 2 and 3, respectively. Cell plates are placed in position 1 and run using the “KCNQ (two additions)” program. FLIPR will then take the appropriate measurements in accordance with the interval settings above. Fluorescence obtained after stimulation is corrected for the mean basal fluorescence (in Cl^− free assay buffer).
Full concentration/response curves are generated and EC50 values (“Effective Concentration”; the concentration at which 50% of the channel activity is obtained when compared to retigabine control responses) are calculated based on peak values. Maxi-mal response determined relative to the reference (retigabine) response is calculated.

SMILES | EC50 [µM] | Emax [%]
O=C(Cc1cc(F)cc(F)c1)Nc1ccc(NCc2ccc(F)cc2)nc1N1CCOCC1 [Compound 2.1, 2-(3,5-Difluoro-phenyl)-N-[6-(4-fluoro-benzylamino)-2-morpholin-4-yl-pyridin-3-yl]-acetamide] | 0.13 | 100
CC(C)(Nc1ccc(NC(=O)Cc2cc(F)cc(F)c2)c(N2CCOCC2)n1)c1ccc(F)cc1 [Compound 2.2, 2-(3,5-Difluoro-phenyl)-N-{6-[1-(4-fluoro-phenyl)-1-methyl-ethylamino]-2-morpholin-4-yl-pyridin-3-yl}-acetamide] | 5.4 | 86
Cc1ccccc1C(=O)Nc1ccc(NCc2ccc(F)cc2)nc1N1CCOCC1 [Compound 2.3, N-[6-(4-Fluoro-benzylamino)-2-morpholin-4-yl-pyridin-3-yl]-2-methyl-benzamide] | 10 | 52
O=C(Cc1ccc2c(c1)OCO2)Nc1ccc(NCc2ccc(F)cc2)nc1N1CCOCC1 [Compound 2.4, 2-Benzo[1,3]dioxol-5-yl-N-[6-(4-fluoro-benzylamino)-2-morpholin-4-yl-pyridin-3-yl]-acetamide] | 0.78 | 104
O=C(Cc1ccc(Cl)cc1Cl)Nc1ccc(NCc2ccc(F)cc2)nc1N1CCOCC1 [Compound 2.7] | 4.1 | 47
O=C(Cc1ccc(Cl)cc1)Nc1ccc(NCc2ccc(F)cc2)nc1N1CCOCC1 [Compound 2.11] | 0.23 | 88
O=C(Cc1ccc(Cl)nc1)Nc1ccc(NCc2ccc(F)cc2)nc1N1CCOCC1 [Compound 2.14, 2-(6-chloro-3-pyridyl)-N-[6-[(4-fluorophenyl)-methylamino]-2-morpholino-3-pyridyl]acetamide] | 0.9 | 80
O=C(Nc1ccc(NCc2ccc(F)cc2)nc1N1CCOCC1)c1cccnc1F [Compound 2.15, 2-fluoro-N-[6-[(4-fluorophenyl)-methylamino]-2-morpholino-3-pyridyl]-pyridine-3-carboxamide] | 11 | 28

Next, values leading:

EC50 [µM] | Emax [%] | SMILES
0.84 | 98 | COc1ccc(CC(=O)Nc2ccc(NCc3ccc(F)cc3)nc2N2CCOCC2)cc1 [Compound 2.5, N-[6-(4-Fluoro-benzylamino)-2-morpholin-4-yl-pyridin-3-yl]-2-(4-methoxy-phenyl)-acetamide]
0.33 | 88 | COc1cccc(CC(=O)Nc2ccc(NCc3ccc(F)cc3)nc2N2CCOCC2)c1 [Compound 2.6, N-[6-(4-Fluoro-benzylamino)-2-morpholin-4-yl-pyridin-3-yl]-2-(3-methoxy-phenyl)-acetamide]
0.59 | 87 | O=C(Cc1cccc(C(F)(F)F)c1)Nc1ccc(NCc2ccc(F)cc2)nc1N1CCOCC1 [Compound 2.8, N-[6-(4-Fluoro-benzylamino)-2-morpholin-4-yl-pyridin-3-yl]-2-(3-trifluoromethyl-phenyl)-acetamide]
0.21 | 86 | O=C(Cc1ccccc1F)Nc1ccc(NCc2ccc(F)cc2)nc1N1CCOCC1 [Compound 2.9, N-[6-(4-Fluoro-benzylamino)-2-morpholin-4-yl-pyridin-3-yl]-2-(2-fluoro-phenyl)-acetamide]
0.035 | 93 | O=C(Cc1cccc(F)c1)Nc1ccc(NCc2ccc(F)cc2)nc1N1CCOCC1 [Compound 2.10, N-[6-(4-Fluoro-benzylamino)-2-morpholin-4-yl-pyridin-3-yl]-2-(3-fluoro-phenyl)-acetamide]
2.7 | 87 | O=C(CSc1ccc(F)cc1)Nc1ccc(NCc2ccc(F)cc2)nc1N1CCOCC1 [Compound 2.12]
6.6 | 86 | O=C(COc1cccc(F)c1)Nc1ccc(NCc2ccc(F)cc2)nc1N1CCOCC1 [Compound 2.13, 2-(3-fluorophenoxy)-N-[6-[(4-fluorophenyl)-methylamino]-2-morpholino-3-pyridyl]acetamide]
